# What was measured:
# [1] = biological target: T1, Platelet-activating factor receptor (Homo sapiens, UniProt P25105); experiment: In vitro inhibition of [3H]-C18 PAF binding to human platelet membrane Platelet activating factor receptor.; set-up: concentration or dose not given beside the values; settings: concentration not given here
# [2] = biological target: Platelet-activating factor receptor (Rattus norvegicus) (UniProt P46002); experiment: In vivo inhibition of 10 nmole/kg PAF-induced plasma N-acetyl-beta-glucosaminidase (NAGA) after oral administration to rats; assay type: organism-based; set-up: concentration or dose not given beside the values
# Chain of Platelet-activating factor receptor (Rattus norvegicus) (P46002 whole entry): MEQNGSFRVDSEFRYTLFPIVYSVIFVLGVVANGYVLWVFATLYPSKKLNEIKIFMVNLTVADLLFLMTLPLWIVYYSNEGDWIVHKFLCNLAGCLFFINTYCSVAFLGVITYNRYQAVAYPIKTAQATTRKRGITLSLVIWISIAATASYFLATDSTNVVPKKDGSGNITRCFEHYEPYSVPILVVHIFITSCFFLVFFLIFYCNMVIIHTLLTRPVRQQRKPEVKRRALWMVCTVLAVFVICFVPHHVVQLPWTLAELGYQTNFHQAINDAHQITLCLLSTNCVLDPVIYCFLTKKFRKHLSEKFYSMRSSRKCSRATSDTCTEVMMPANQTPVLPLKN
# [3] = biological target: Platelet-activating factor receptor (Rattus norvegicus) (UniProt P46002); experiment: In vivo inhibition of 10 nmole/kg PAF-induced hemoconcentration was determined at 1 mg/kg peroral administration; assay type: functional, organism-based; set-up: dose 1 mg/kg
# [4] = species: Homo sapiens; experiment: Inhibitory activity of compound was determined by 3E-7M PAF-induced degranulation of PAFas measured by myeloperoxidase secretion; assay type: functional
# [5] = biological target: T1, Platelet-activating factor receptor; experiment: Compound was evaluated for inhibition of binding of [3H]-C18 PAF to human platelet membrane Platelet activating factor receptor
# [6] = biological target: T1, Platelet-activating factor receptor; experiment: Compound was evaluated for inhibitory activity of binding of [3H]-C18 PAF to human platelet membrane Platelet activating factor receptor
# [7] = test system: Rattus norvegicus; experiment: Drop in blood pressure was observed after 15 minutes of intravenous administration of 0.2 mg/kg compound; assay type: functional
# [8] = test system: Rattus norvegicus; experiment: Compound inhibits 10 nmole/kg PAF-induced hemoconcentration and plasma N-acetyl-beta-glucosaminidase increase in male rats; assay type: functional
# [9] = test system: Rattus norvegicus; experiment: Compound inhibits 10 nmole/kg PAF-induced hemoconcentration and plasma N-acetyl-beta-glucosaminidase increase in female rats; assay type: functional
# [10] = test system: Rattus norvegicus; experiment: In vivo inhibition of 10 nmole/kg PAF-induced hemoconcentration was determined at 1 mg/kg peroral administration in rats; assay type: functional; settings: route oral
# [11] = biological target: T1, Platelet-activating factor receptor; experiment: In vitro inhibition of [3H]-C18 PAF binding to human platelet membrane Platelet activating factor receptor was determined
# T1 sequence (P25105 whole entry): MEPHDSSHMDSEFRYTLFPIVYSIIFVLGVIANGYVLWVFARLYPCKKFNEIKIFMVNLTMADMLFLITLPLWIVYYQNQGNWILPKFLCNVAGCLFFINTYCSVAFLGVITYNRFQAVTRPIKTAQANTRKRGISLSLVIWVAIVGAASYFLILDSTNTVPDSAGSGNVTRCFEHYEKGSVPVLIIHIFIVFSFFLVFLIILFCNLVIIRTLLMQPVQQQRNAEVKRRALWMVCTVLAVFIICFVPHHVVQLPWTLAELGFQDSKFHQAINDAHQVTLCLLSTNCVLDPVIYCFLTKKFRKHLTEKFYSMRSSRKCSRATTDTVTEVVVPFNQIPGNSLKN
Compound,inhibition [1] [%],inhibition [2] [%],inhibition [3] [%],other results
CCCS(=O)(=O)c1cc(C2CC[C@@H](c3cc(OC)c(OC)c(OC)c3)O2)cc(OC)c1OCCSc1ccc(C(=O)O)cc1 (some centres not stated),38,23,11,
CCCS(=O)(=O)c1cc(C2CC[C@@H](c3cc(OC)c(OC)c(OC)c3)O2)cc(OC)c1OCC[S+]([O-])c1ccc(N)cc1 (some centres not stated),0,,,
CCCS(=O)(=O)c1cc(C2CC[C@@H](c3cc(OC)c(OC)c(OC)c3)O2)cc(OC)c1OCCSc1ccc(C#N)cc1 (some centres not stated),93,39,33,
CCCS(=O)(=O)c1cc(C2CC[C@@H](c3cc(OC)c(OC)c(OC)c3)O2)cc(OC)c1OCCS(=O)(=O)c1ccccc1 (some centres not stated),72,94,94,IC50 [4]: 0.78 nM; Ki [5]: 1 nM; IC50 [6]: 1 nM; Decrease in blood pressure [7]: 79 mmHg; ED50 [8]: 0.26 mg/kg; ED50 [9]: 0.22 mg/kg
CCCS(=O)(=O)c1cc(C2CC[C@@H](c3cc(OC)c(OC)c(OC)c3)O2)cc(OC)c1OCCSc1ccc(C(N)=O)cc1 (some centres not stated),70,32,26,
CCCS(=O)(=O)c1cc(C2CC[C@@H](c3cc(OC)c(OC)c(OC)c3)O2)cc(OC)c1OCC[S+]([O-])c1ccc(O)cc1 (some centres not stated),73,44,,inhibition in vivo at 1 mg/kg [10]: 25%
CCCS(=O)(=O)c1cc(C2CC[C@@H](c3cc(OC)c(OC)c(OC)c3)O2)cc(OC)c1OCCSc1ccccc1N (some centres not stated),57,,,
CCCS(=O)(=O)c1cc(C2CC[C@@H](c3cc(OC)c(OC)c(OC)c3)O2)cc(OC)c1OCCS(=O)(=O)c1ccc(O)cc1 (some centres not stated),88,13,,inhibition in vivo at 1 mg/kg [10]: 7%
"CCCOc1c(OC)cc([C@H]2CC[C@H](c3cc(OC)c(OC)c(OC)c3)O2)cc1S(C)(=O)=O (single isomer, unassigned)",,,,Ki [11]: 14.3 nM
CCCS(=O)(=O)c1cc(C2CC[C@@H](c3cc(OC)c(OC)c(OC)c3)O2)cc(OC)c1OCCS(=O)(=O)c1ccc(N)cc1 (some centres not stated),41,,,
CCCS(=O)(=O)c1cc(C2CC[C@@H](c3cc(OC)c(OC)c(OC)c3)O2)cc(OC)c1OCCSc1ccc(N(C)C)cc1 (some centres not stated),66,57,66,
CCCS(=O)(=O)c1cc(C2CC[C@@H](c3cc(OC)c(OC)c(OC)c3)O2)cc(OC)c1OCCSc1ccccc1 (some centres not stated),93,84,95,
CCCS(=O)(=O)c1cc(C2CC[C@@H](c3cc(OC)c(OC)c(OC)c3)O2)cc(OC)c1OCC[S+]([O-])c1ccc(C#N)cc1 (some centres not stated),74,0,5,
CCCS(=O)(=O)c1cc(C2CC[C@@H](c3cc(OC)c(OC)c(OC)c3)O2)cc(OC)c1OCCSc1ccccc1O (some centres not stated),58,,,
CCCS(=O)(=O)c1cc(C2CC[C@@H](c3cc(OC)c(OC)c(OC)c3)O2)cc(OC)c1OCCSc1ccc(O)cc1 (some centres not stated),100,75,63,
CCCS(=O)(=O)c1cc(C2CC[C@@H](c3cc(OC)c(OC)c(OC)c3)O2)cc(OC)c1OCCSc1ncc[nH]1 (some centres not stated),60,13,11,
CCCS(=O)(=O)c1cc(C2CC[C@@H](c3cc(OC)c(OC)c(OC)c3)O2)cc(OC)c1OCCSc1ccncc1 (some centres not stated),73,15,15,
CCCS(=O)(=O)c1cc(C2CC[C@@H](c3cc(OC)c(OC)c(OC)c3)O2)cc(OC)c1OCCSc1cccc(O)c1 (some centres not stated),61,29,27,
CCCS(=O)(=O)c1cc(C2CC[C@@H](c3cc(OC)c(OC)c(OC)c3)O2)cc(OC)c1OCCSc1ccc(N)cc1 (some centres not stated),60,58,,inhibition in vivo at 1 mg/kg [10]: 56%
CCCS(=O)(=O)c1cc(C2CC[C@@H](c3cc(OC)c(OC)c(OC)c3)O2)cc(OC)c1OCCSc1cccc(N)c1 (some centres not stated),80,4,,inhibition in vivo at 1 mg/kg [10]: 7%
CCCS(=O)(=O)c1cc(C2CC[C@@H](c3cc(OC)c(OC)c(OC)c3)O2)cc(OC)c1OCCS(=O)(=O)c1ccncc1 (some centres not stated),45,5,0,
CCCS(=O)(=O)c1cc(C2CC[C@@H](c3cc(OC)c(OC)c(OC)c3)O2)cc(OC)c1OCCS(=O)(=O)c1ccc(C#N)cc1 (some centres not stated),69,1,0,

# Reference: ChEMBL document CHEMBL1126400, “Synthesis and biological activity of the platelet-activating factor antagonist ()-trans-2-(3-methoxy-4-phenylsulfonylethoxy-5-n-propylsulfonylphenyl)-5-(3,4,5-trimethoxyphenyl)tetrahydrofuran (L-671,284) and its analogs” (Bioorg Med Chem Lett, 1992)
